Experimental data taken from patent US7989649B2, “Tumor imaging compounds” (Emory University, priority 2002, dated 2011).

Test: Rodent biodistribution study in normal Fischer rats
Format: in vivo, rat
Settings: for Tissue distribution of radioactivity, Blood / Tissue distribution of radioactivity, Bone / Tissue distribution of radioactivity, Brain / Tissue distribution of radioactivity, Heart / Tissue distribution of radioactivity, Kidney / Tissue distribution of radioactivity, Liver / Tissue distribution of radioactivity, Lung / Tissue distribution of radioactivity, Muscle / Tissue distribution of radioactivity, Pancreas / Tissue distribution of radioactivity, Spleen / Tissue distribution of radioactivity, Testis: normal Fischer rats; for brain uptake of radioactivity: all time points
Description: Rodent biodistribution studies. The same procedures were used to evaluate [^18F]5a and [^18F]5b separately in rodents. The tissue distribution of radioactivity was determined in 16 normal male Fischer 344 rats (200-250 g) after intravenous injection of ˜85 μCi of [^18F]5a or [^18F]5b in 0.3 mL of sterile water. The animals were allowed food and water ad libitum before the experiment. Following anesthesia induced with an intramuscular injection of 0.1 mL/100 g of a 1:1 ketamine ([…]):xylazine (20 mg/mL) solution, the radiolabeled amino acid was injected into the rats via tail vein catheters. Groups of four rats were killed at 5 minutes, 30 minutes, 60 minutes and 120 minutes after injection of the dose. The animals were dissected, and selected tissues were weighed and counted along with dose standards in a Packard Cobra II Auto-Gamma Counter. The raw counts were decay corrected, and the counts were normalized as the percent of total injected dose per gram of tissue (% ID/g). A comparison of the uptake of activity in the tissues at each time point was analyzed using a 1-way ANOVA (GraphPad Prism software package).

[1] = 5 min after injection, listed as [^18F]FAMP (5a)
[2] = 120 min after injection, listed as [^18F]FAMP (5a)
[3] = 5 min after injection, listed as [^18F]N-MeFAMP (5b)

CC(N)(CF)C(=O)O (racemic) [[^18F]5a, 2-amino-3-fluoro-2-methylpropanoic acid]
Tissue distribution of radioactivity, Blood (5 min after injection): 0.53 ± 0.03 percent dose per gram
Tissue distribution of radioactivity, Bone (5 min after injection): 0.27 ± 0.005 percent dose per gram
Tissue distribution of radioactivity, Brain (5 min after injection): 0.04 ± 0.003 percent dose per gram
Tissue distribution of radioactivity, Heart (5 min after injection): 0.29 ± 0.012 percent dose per gram
Tissue distribution of radioactivity, Kidney (5 min after injection): 6.36 percent dose per gram
Tissue distribution of radioactivity, Liver (5 min after injection): 0.65 percent dose per gram
Tissue distribution of radioactivity, Lung (5 min after injection): 0.55 ± 0.006 percent dose per gram
Tissue distribution of radioactivity, Muscle (5 min after injection): 0.22 ± 0.013 percent dose per gram
Tissue distribution of radioactivity, Pancreas (5 min after injection): 3.46 percent dose per gram
Tissue distribution of radioactivity, Spleen (5 min after injection): 0.83 ± 0.05 percent dose per gram
Tissue distribution of radioactivity, Testis (5 min after injection): 0.17 ± 0.010 percent dose per gram
Tissue distribution of radioactivity, Kidney [1]: 6.36 ± 0.36 percent dose per gram
Tissue distribution of radioactivity, Liver [1]: 0.65 ± 0.05 percent dose per gram
Tissue distribution of radioactivity, Pancreas [1]: 3.46 ± 0.19 percent dose per gram
Tissue distribution of radioactivity, Blood (30 min after injection): 0.25 ± 0.014 percent dose per gram
Tissue distribution of radioactivity, Bone (30 min after injection): 0.22 ± 0.02 percent dose per gram
Tissue distribution of radioactivity, Brain (30 min after injection): 0.05 ± 0.004 percent dose per gram
Tissue distribution of radioactivity, Heart (30 min after injection): 0.29 ± 0.04 percent dose per gram
Tissue distribution of radioactivity, Kidney (30 min after injection): 5.59 ± 0.28 percent dose per gram
Tissue distribution of radioactivity, Liver (30 min after injection): 0.56 ± 0.04 percent dose per gram
Tissue distribution of radioactivity, Lung (30 min after injection): 0.54 ± 0.12 percent dose per gram
Tissue distribution of radioactivity, Muscle (30 min after injection): 0.22 ± 0.009 percent dose per gram
Tissue distribution of radioactivity, Pancreas (30 min after injection): 2.93 ± 0.20 percent dose per gram
Tissue distribution of radioactivity, Spleen (30 min after injection): 0.54 ± 0.03 percent dose per gram
Tissue distribution of radioactivity, Testis (30 min after injection): 0.10 ± 0.006 percent dose per gram
Tissue distribution of radioactivity, Blood (60 min after injection): 0.22 ± 0.02 percent dose per gram
Tissue distribution of radioactivity, Bone (60 min after injection): 0.19 ± 0.03 percent dose per gram
Tissue distribution of radioactivity, Brain (60 min after injection): 0.06 ± 0.004 percent dose per gram
Tissue distribution of radioactivity, Heart (60 min after injection): 0.28 ± 0.013 percent dose per gram
Tissue distribution of radioactivity, Kidney (60 min after injection): 4.74 ± 0.15 percent dose per gram
Tissue distribution of radioactivity, Liver (60 min after injection): 0.50 ± 0.013 percent dose per gram
Tissue distribution of radioactivity, Lung (60 min after injection): 0.44 ± 0.05 percent dose per gram
Tissue distribution of radioactivity, Muscle (60 min after injection): 0.26 ± 0.02 percent dose per gram
Tissue distribution of radioactivity, Pancreas (60 min after injection): 2.95 ± 0.27 percent dose per gram
Tissue distribution of radioactivity, Spleen (60 min after injection): 0.50 ± 0.04 percent dose per gram
Tissue distribution of radioactivity, Testis (60 min after injection): 0.12 ± 0.006 percent dose per gram
Tissue distribution of radioactivity, Blood (120 min after injection): 0.15 ± 0.005 percent dose per gram
Tissue distribution of radioactivity, Bone (120 min after injection): 0.13 ± 0.012 percent dose per gram
Tissue distribution of radioactivity, Brain (120 min after injection): 0.05 ± 0.001 percent dose per gram
Tissue distribution of radioactivity, Heart (120 min after injection): 0.23 ± 0.03 percent dose per gram
Tissue distribution of radioactivity, Kidney (120 min after injection): 2.97 percent dose per gram
Tissue distribution of radioactivity, Liver (120 min after injection): 0.48 percent dose per gram
Tissue distribution of radioactivity, Lung (120 min after injection): 0.37 ± 0.10 percent dose per gram
Tissue distribution of radioactivity, Muscle (120 min after injection): 0.19 ± 0.003 percent dose per gram
Tissue distribution of radioactivity, Pancreas (120 min after injection): 2.48 percent dose per gram
Tissue distribution of radioactivity, Spleen (120 min after injection): 0.33 ± 0.02 percent dose per gram
Tissue distribution of radioactivity, Testis (120 min after injection): 0.10 ± 0.004 percent dose per gram
Tissue distribution of radioactivity, Kidney [2]: 2.97 ± 0.17 percent dose per gram
Tissue distribution of radioactivity, Liver [2]: 0.48 ± 0.03 percent dose per gram
Tissue distribution of radioactivity, Pancreas [2]: 2.48 ± 0.03 percent dose per gram
uptake of radioactivity in heart, lung, bone, blood, muscle and testis (normal rats, 5 minutes): < 0.55 % ID/g
brain uptake of radioactivity (normal rats): approximately 0.05 % ID/g

CNC(C)(CF)C(=O)O (racemic) [[^18F]5b, 3-fluoro-2-methyl-2-(methylamino)propanoic acid]
Tissue distribution of radioactivity, Blood (5 min after injection): 0.61 ± 0.02 percent dose per gram
Tissue distribution of radioactivity, Bone (5 min after injection): 0.34 ± 0.04 percent dose per gram
Tissue distribution of radioactivity, Brain (5 min after injection): 0.04 ± 0.005 percent dose per gram
Tissue distribution of radioactivity, Heart (5 min after injection): 0.22 ± 0.01 percent dose per gram
Tissue distribution of radioactivity, Kidney (5 min after injection): 8.12 percent dose per gram
Tissue distribution of radioactivity, Liver (5 min after injection): 0.79 ± 0.06 percent dose per gram
Tissue distribution of radioactivity, Lung (5 min after injection): 0.53 ± 0.03 percent dose per gram
Tissue distribution of radioactivity, Muscle (5 min after injection): 0.16 ± 0.008 percent dose per gram
Tissue distribution of radioactivity, Pancreas (5 min after injection): 2.73 percent dose per gram
Tissue distribution of radioactivity, Spleen (5 min after injection): 0.44 ± 0.06 percent dose per gram
Tissue distribution of radioactivity, Testis (5 min after injection): 0.17 ± 0.004 percent dose per gram
Tissue distribution of radioactivity, Kidney [3]: 8.12 ± 0.62 percent dose per gram
Tissue distribution of radioactivity, Pancreas [3]: 2.73 ± 0.28 percent dose per gram
Tissue distribution of radioactivity, Blood (30 min after injection): 0.30 ± 0.003 percent dose per gram
Tissue distribution of radioactivity, Bone (30 min after injection): 0.32 ± 0.04 percent dose per gram
Tissue distribution of radioactivity, Brain (30 min after injection): 0.04 ± 0.004 percent dose per gram
Tissue distribution of radioactivity, Heart (30 min after injection): 0.23 ± 0.03 percent dose per gram
Tissue distribution of radioactivity, Kidney (30 min after injection): 4.60 ± 0.70 percent dose per gram
Tissue distribution of radioactivity, Liver (30 min after injection): 0.72 ± 0.09 percent dose per gram
Tissue distribution of radioactivity, Lung (30 min after injection): 0.50 ± 0.07 percent dose per gram
Tissue distribution of radioactivity, Muscle (30 min after injection): 0.16 ± 0.003 percent dose per gram
Tissue distribution of radioactivity, Pancreas (30 min after injection): 3.00 ± 0.23 percent dose per gram
Tissue distribution of radioactivity, Spleen (30 min after injection): 0.75 ± 0.06 percent dose per gram
Tissue distribution of radioactivity, Testis (30 min after injection): 0.11 ± 0.005 percent dose per gram
Tissue distribution of radioactivity, Blood (60 min after injection): 0.18 ± 0.02 percent dose per gram
Tissue distribution of radioactivity, Bone (60 min after injection): 0.29 ± 0.04 percent dose per gram
Tissue distribution of radioactivity, Brain (60 min after injection): 0.03 ± 0.003 percent dose per gram
Tissue distribution of radioactivity, Heart (60 min after injection): 0.20 ± 0.02 percent dose per gram
Tissue distribution of radioactivity, Kidney (60 min after injection): 2.73 ± 0.35 percent dose per gram
Tissue distribution of radioactivity, Liver (60 min after injection): 0.78 ± 0.10 percent dose per gram
Tissue distribution of radioactivity, Lung (60 min after injection): 0.38 ± 0.07 percent dose per gram
Tissue distribution of radioactivity, Muscle (60 min after injection): 0.15 ± 0.007 percent dose per gram
Tissue distribution of radioactivity, Pancreas (60 min after injection): 3.24 ± 0.30 percent dose per gram
Tissue distribution of radioactivity, Spleen (60 min after injection): 0.68 ± 0.02 percent dose per gram
Tissue distribution of radioactivity, Testis (60 min after injection): 0.08 ± 0.005 percent dose per gram
Tissue distribution of radioactivity, Blood (120 min after injection): 0.10 ± 0.007 percent dose per gram
Tissue distribution of radioactivity, Bone (120 min after injection): 0.20 ± 0.02 percent dose per gram
Tissue distribution of radioactivity, Brain (120 min after injection): 0.03 ± 0.001 percent dose per gram
Tissue distribution of radioactivity, Heart (120 min after injection): 0.17 ± 0.02 percent dose per gram
Tissue distribution of radioactivity, Kidney (120 min after injection): 1.36 ± 0.27 percent dose per gram
Tissue distribution of radioactivity, Liver (120 min after injection): 0.58 ± 0.11 percent dose per gram
Tissue distribution of radioactivity, Lung (120 min after injection): 0.30 ± 0.08 percent dose per gram
Tissue distribution of radioactivity, Muscle (120 min after injection): 0.13 ± 0.007 percent dose per gram
Tissue distribution of radioactivity, Pancreas (120 min after injection): 2.88 ± 0.40 percent dose per gram
Tissue distribution of radioactivity, Spleen (120 min after injection): 0.47 ± 0.04 percent dose per gram
Tissue distribution of radioactivity, Testis (120 min after injection): 0.06 ± 0.005 percent dose per gram
brain uptake of radioactivity (normal rats): approximately 0.04 % ID/g
